Measured values taken from patent US20260053886A1, “ANTICANCER AGENT” (The Trustees of Princeton University, priority 2022, published 2026).
≈ marks a conversion by molar mass, not a printed value. Where “and” joins values, the source holds several entries; their conditions need not be identical. Equal values may be shown once. Read-outs that look alike come from different tables or passages of the source. Non-standard residues stand in square brackets, D forms with d. Residues, ends and D or L forms follow the SMILES beside them. Phe(βS-OH) = N[C@H](C(=O)O)[C@@H](O)c1ccccc1; NMeH = CN[C@@H](Cc1c[nH]cn1)C(=O)O; Hyp = O=C(O)[C@@H]1C[C@@H](O)CN1; NMeF = CN[C@@H](Cc1ccccc1)C(=O)O; NMeL = CN[C@@H](CC(C)C)C(=O)O; Dap = NC[C@H](N)C(=O)O; Sar = CNCC(=O)O

Legend:
M. luteus = assay: effect on microbial growth (MIC); assay type: cell-based
S. aureus Newman = assay: effect on microbial growth (MIC); assay type: cell-based
B. subtilis 3610 = assay: effect on microbial growth (MIC); assay type: cell-based
P. aeruginosa PAO1 = assay: effect on microbial growth (MIC); assay type: cell-based
S. cerevisiae = assay: effect on microbial growth (MIC)
E. faecalis OG1RF = assay: effect on microbial growth (MIC); assay type: cell-based
E. coli K12 = assay: effect on microbial growth (MIC)
[1] = tested on: colon cancer cell line HCT116; assay: anticancer assay, growth inhibition, dose-response; assay type: cell-based
[2] = tested on: breast cancer cell line MDA-MB-231; assay: anticancer assay, growth inhibition, dose-response; assay type: cell-based
S. pombe = assay: effect on microbial growth (MIC)
V. cholerae = assay: effect on microbial growth (MIC)
S. epidermidis = assay: effect on microbial growth (MIC); assay type: cell-based
B. subtilis 168 = assay: effect on microbial growth (MIC)
[3] = tested on: momomycin production in S. rimosus Δrim::aprR; assay: induction of momomycin production (HR-HPLC-MS extracted ion chromatograms); assay type: cell-based; conditions: Streptomyces rimosus, 120 h, read-out: half-maximal elicitor concentration (EC50)
Description: A seed culture of S. rimosus Δrim::apr^R was inoculated in TSBY medium as described above, which was used to start fermentation cultures in 125 mL Erlenmeyer flasks with the final concentration of cells of 0.05% (w/v). Each flask contained 25 mL R4 medium, supplemented with various concentrations of elicitors or equal volumes of DMSO as control. After 5 d of cultivation at 30° C./250 rpm, the cultures were spun down and processed by solid phase extraction (SPE). Specifically, 5 mL of supernatant was filtered and loaded onto STRATA® C18-E column (Phenomenex, 55 μm, 70 Å, 50 mg), which had been activated with MeOH and equilibrated with H2O. The column was washed with 1 mL H2O and eluted by 1 mL MeOH. The samples in MeOH were dried in vacuo, resuspended in 50 μL MeCN in H2O, and subjected to HR-HPLC-MS analysis.
(§1) Separately, small-scale fermentation of S. rimosus Δrim::apr^R was performed as described above with the following concentrations of phytosphingosine: 0, 1.25, 2.5, 5, 10, 20, 40, 80, 160 μM. After 5 d, cells were collected by centrifugation (4000 g, 1 h) and the wet weight of pellets were measured.
Cell viability relative to DMSO-treated samples were graphed and fit to a dose-response curve in Prism 9 to obtain the IC50 value. In addition, culture supernatants were processed via SPE as described above and samples were subjected to HR-HPLC-MS analysis. […]

S. rimosus Δrim::aprR = assay: antimicrobial activity, cell viability (wet pellet weight) relative to DMSO; assay type: cell-based; conditions: Streptomyces rimosus, 120 h, read-out: half-maximal inhibitory concentration (IC50)
Description: as §1
Cell viability relative to DMSO-treated samples were graphed and fit to a dose-response curve in Prism 9 to obtain the IC50 value. In addition, culture supernatants were processed via SPE as described above and samples were subjected to HR-HPLC-MS analysis. The extracted ion chromatograms of momomycin were integrated and the data were graphed to represent the induction effect of phytosphingosine on momomycin production at different concentrations. All data points were taken from biological duplicates.

| SMILES | minimum inhibitory concentration (MIC) (M. luteus) [µg/mL] | minimum inhibitory concentration (MIC) (S. aureus Newman) | minimum inhibitory concentration (MIC) (B. subtilis 3610) | minimum inhibitory concentration (MIC) (P. aeruginosa PAO1) | minimum inhibitory concentration (MIC) (S. cerevisiae) | minimum inhibitory concentration (MIC) (E. faecalis OG1RF) | minimum inhibitory concentration (MIC) (E. coli K12) | IC50 ([1]; colorectal carcinoma / colon cancer cell line HCT116, FIG. 2A, read-out: IC50) | IC50 ([1]; colorectal carcinoma HCT116, dose-response curve FIG. 2A) [µg/mL] | IC50 ([2]; adenocarcinoma MDA-MB-231, FIG. 2B, read-out: IC50) [nM] | IC50 ([2]; adenocarcinoma MDA-MB-231, dose-response curve FIG. 2B) [µg/mL] | minimum inhibitory concentration (MIC) (S. pombe) | minimum inhibitory concentration (MIC) (V. cholerae) | minimum inhibitory concentration (MIC) (S. epidermidis) | minimum inhibitory concentration (MIC) (B. subtilis 168) | EC50 [3] [µM] | IC50 (S. rimosus Δrim::aprR) [µM] |
| --- | --- | --- | --- | --- | --- | --- | --- | --- | --- | --- | --- | --- | --- | --- | --- | --- | --- |
| CC(C)C[C@H]1C(=O)N(C)[C@@H](Cc2ccccc2)C(=O)N[C@@H](Cc2ccc(O)cc2)C(=O)N[C@@H]([C@@H](O)c2ccccc2)C(=O)N[C@@H](CC(=O)O)C(=O)N(C)CC(=O)N[C@@H](CN)C(=O)N2C[C@H](O)C[C@H]2C(=O)N[C@@H](CN)C(=O)N(C)[C@@H](Cc2ccccc2)C(=O)N(C)[C@@H](Cc2cnc[nH]2)C(=O)N1C [momomycin] (cyclo(D[Sar][Dap][Hyp][Dap][NMeF][NMeH][NMeL][NMeF]Y[Phe(βS-OH)])) | 64 (≈ 45.8 µM) | above 64 μg/mL | above 64 μg/mL | above 64 μg/mL | above 64 μg/mL | above 64 μg/mL | above 64 μg/mL | 1100 nM and ~1100 nM | 1.5 | 1200 | 1.7 | above 64 μg/mL | above 64 μg/mL | above 64 μg/mL | above 64 μg/mL | – | – |
| CCCCCCCCCCCCCC[C@@H](O)[C@@H](O)[C@@H](N)CO [phytosphingosine] | – | – | – | – | – | – | – | – | – | – | – | – | – | – | – | 16.9 | 37.8 |
